In EP0311051A2, “Pyridylacetonitrile derivatives” (priority 1987, dated 1989):
In brackets after ≈: the same amount, converted by molar mass.

Assays:
[1] = system: rice blast fungus (Pyricularia oryzae); assay type: in vivo; details: 500 ppm a.i., 10 days after inoculation; for No. of leaves in each infection degree 0: index 0 = 0 lesions per leaf; for No. of leaves in each infection degree 1: index 1 = 1 lesion per leaf; for No. of leaves in each infection degree 2: index 2 = 2-5 lesions per leaf; for No. of leaves in each infection degree 3: index 3 = 6-10 lesions per leaf; for No. of leaves in each infection degree 4: index 4 = 11 or more lesions per leaf; for % of Infected leaves / Infection degree / No. of infected leaves: rice seedlings
Botrytis cinerea [2] = assay: Activity persistence against gray mold of egg plant (spray 1 to 10 days before inoculation); assay type: in vivo; details: 250 ppm a.i.
Botrytis cinerea [3] = assay: Curative activity against gray mold of egg plant (detached leaf, spray after disease development); assay type: in vivo; details: 125 ppm a.i.
Description: A second developed leaf of egg plant (variety: Senryo #12) was placed in a petri dish and the mycelia of Botrytis cinerea grown on a PDA culture medium was inoculated after punching with a cork borer on the center of the leaf. The incubation was carried out at 25°C under humid condition for 24 hours. […] After air drying, the incubation was carried out at 25°C under humid condition. The diameter of the infected area was measured every day for 5 days after the application. Eight tests were carried out in each run.

Botrytis cinerea [4] = assay: Antifungal activity against Botrytis cinerea by agar dilution method; assay type: cell-based; details: 120 h, concentration for 90% inhibition of mycelium growth, potato-agar medium, 25°C, 5 days, read-out: EC₉₀
Description: The culture medium thus obtained was allowed to stand in a room with constant temperature for predetermined days. Thereafter, the growth of mycelium of the microorganism was measured and the concentration for 90% inhibition of the growth (EC₉₀) was determined. Four tests were carried out in each run. The tests for microorganisms were carried out at a temperature of 25°C for 5 days.

Sclerotinia sclerotiorum = assay: Antifungal activity against Sclerotinia rot of kidney bean (sprayed cotyledons, mycelial inoculation); assay type: in vivo; details: 500 ppm a.i.; for Average infected area: 28°C, RH 100%, 4 days; for Controlled value: (1-S/S₀)×100, 4 days
Description: A 20 ml sample solution containing a predetermined concentration of the active compound was sprayed on 10 cotyledons of a kidney bean (variety: Masterpiece), which were dried in a room. After drying, the mycelia of Sclerotinia sclerotiorum grown on a PDA culture medium was inoculated after punching with a cork borer. The incubation was carried out at a temperature of 28°C and an RH of 100% for 4 days. The infected area was measured. Ten tests were carried out in each run. […]

[5] = 1 day between application and inoculation
[6] = 4 days between application and inoculation
[7] = 7 days between application and inoculation
[8] = 10 days between application and inoculation
[9] = 1 day between application and observation
[10] = 2 days between application and observation
[11] = 3 days between application and observation
[12] = 4 days between application and observation
[13] = 5 days between application and observation

SMILES	No. of leaves in each infection degree 0 [1]	No. of leaves in each infection degree 1 [1]	No. of leaves in each infection degree 2 [1]	No. of leaves in each infection degree 3 [1]	No. of leaves in each infection degree 4 [1]	% of Infected leaves [1] [%]	Infection degree [1]	No. of infected leaves [1]	Infection degree (Botrytis cinerea [2]; [5])	Infection degree (Botrytis cinerea [2]; [6])	Infection degree (Botrytis cinerea [2]; [7])	Infection degree (Botrytis cinerea [2]; [8])	Diameter of lesion (Botrytis cinerea [3]; [9]) [mm]	Diameter of lesion (Botrytis cinerea [3]; [10]) [mm]	Diameter of lesion (Botrytis cinerea [3]; [11]) [mm]	Diameter of lesion (Botrytis cinerea [3]; [12]) [mm]	Diameter of lesion (Botrytis cinerea [3]; [13]) [mm]	EC90 (Botrytis cinerea [4]) [µg/mL]	Average infected area (Sclerotinia sclerotiorum) [%]	Controlled value (Sclerotinia sclerotiorum) [%]
CC(C)OC(=O)C(C(=O)OC(C)C)=C1SCCS1 [F, diisopropyl-1,3,-dithiolan-2-ylidene malonate]	128	45	12	0	0	30.8	9.3	185												
CCCC(c1ccc(Cl)cc1Cl)C(C#N)n1ccnc1 (centres unmarked) [A, 3-(2,4-dichlorophenyl)-2-(1-imidazolyl)hexanenitrile]									25.0	37.5	45.0	62.5	10	18	23	26	30	10.9 (≈ 35.4 µM)	40	60
CCC(c1ccc(Cl)cc1Cl)C(C#N)c1cccnc1 (centres unmarked) [Compound 1, 3-(2,4-dichlorophenyl)-2-(3-pyridyl)pentanenitrile]	145	48	13	0	0	29.6	9.0	206	10.0	12.0	17.5	17.5	10	15	17	19	19	1.4 (≈ 4.59 µM)	5	95
O=C1OCc2c(Cl)c(Cl)c(Cl)c(Cl)c21 [G, 4,5,6,7-tetrachlorophthalide]	151	28	1	0	0	16.1	4.2	180												
CC12CC1(C)C(=O)N(c1cc(Cl)cc(Cl)c1)C2=O (centres unmarked) [D, N-(3′,5′-dichlorophenyl)-1,2-dimethylcyclopropane-1,2-dicarboximide]									12.0	15.5	20.5	25.0								
COC(=O)NC(=S)Nc1ccccc1NC(=S)NC(=O)OC [E, dimethyl-4,4′-o-phenylene-bis(3-thioalfanate)]													10	18	21	22	26		20	80
CCC(c1ccc(F)cc1Cl)C(C#N)c1cccnc1 (centres unmarked) [Compound 12, 3-(2-chloro-4-fluorophenyl)-2-(3-pyridyl)pentanenitrile]									10.0	11.0	12.0	15.0	10	15	17	19	19	0.9 (≈ 3.12 µM)	5	95
